{
  "source": "patent US20150094345A1",
  "about": "“PHARMACEUTICAL FORMULATION HAVING IMPROVED STABILITY” (priority 2012, published 2015)",
  "assay": "6-month stability study of the compositions (impurity concentrations)",
  "type": "physicochemical",
  "data": [
    {"smiles": "CCOC(=O)C1=C(COCCN)NC(C)=C(C(=O)OC)C1c1ccccc1Cl", "note": "(centres unmarked) [amlodipine besylate]", "values": [
      {"measurement": "concentration of the main decomposition product of amlodipine besylate (European Pharmacopeia: Impurity D)", "setting": "any storage condition, 6-month stability testing period, composition containing ramipril and amlodipine", "value": "≤ 0.05", "unit": "%"},
      {"measurement": "stability of amlodipine besylate in the combination dosage form", "setting": "until the end of the six-month stability testing period", "value": "remains stable"}
    ]}
  ]
}
